# Reference: patent publication US20060069132A1, “Azolecarboxamide herbicides” (priority 2004, published 2006)
# How the values were obtained:
# blackgrass = experiment: Test B postemergence herbicide test; type: in vivo, Alopecurus myosuroides; details: postemergence, visual rating, scale 0 (no effect) to 100 (complete control)
# How it was run: (§1)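 Each value is a visual 0–100 response rating taken against controls 13 to 15 days after treatment in the greenhouse. Plants received formulated chemical postemergence at the 1- to 4-leaf stage or, in flooded paddy, at the 2-leaf stage.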
# [1] = system: small flower umbrella sedge; experiment: Test B flooded paddy test; type: in vivo, Cyperus difformis; details: 1000 g ai/ha, visual rating, scale 0 to 100 (0 no effect, 100 complete control), 13 to 15 days
# How it was run: as §1
# giant foxtail [2] = experiment: Test B pre-/postemergence herbicide test; type: in vivo, Setaria faberi; details: for Plant response rating, Foxtail, Giant: preemergence; for Foxtail, Giant plant response rating: postemergence, visual rating, scale 0 (no effect) to 100 (complete control)
# How it was run: (§2)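 Response was scored visually 13 to 15 days after treatment against untreated greenhouse controls, 0 meaning no effect and 100 complete control. Formulations (solvent mixture plus surfactant) went onto soil after planting, onto foliage of 1- to 4-leaf plants, and onto 2-leaf plants in a flooded paddy set including rice and barnyardgrass.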
# ducksalad = experiment: Test B flooded paddy test; type: in vivo, Heteranthera limosa; details: 1000 g ai/ha, visual rating, scale 0 to 100 (0 no effect, 100 complete control), 13 to 15 days
# How it was run: as §1
# velvetleaf [3] = experiment: Test A pre-/postemergence herbicide test; type: in vivo, Abutilon theophrasti
# How it was run: (§3)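 Sandy loam soil given preemergence directed spray; plants at 2 to 10 cm, one- to two-leaf stage, sprayed to runoff postemergence, compounds in non-phytotoxic solvent with surfactant. Injury rated visually versus untreated controls after about ten greenhouse days, 0 (no effect) to 100 (complete control); dash means not tested.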
# pigweed = experiment: Test B pre-/postemergence herbicide test; type: in vivo, Amaranthus retroflexus; details: for Plant response rating, Pigweed: preemergence; for Pigweed plant response rating: postemergence, visual rating, scale 0 (no effect) to 100 (complete control)
# How it was run: as §2
# rice [4] = experiment: Test B pre-/postemergence herbicide test; type: in vivo, Oryza sativa; details: preemergence
# How it was run: as §2
# barnyardgrass [5] = experiment: Test A pre-/postemergence herbicide test; type: in vivo, Echinochloa crus-galli
# How it was run: as §3
# redroot pigweed = experiment: Test A pre-/postemergence herbicide test; type: in vivo, Amaranthus retroflexus
# How it was run: as §3
# cocklebur = experiment: Test B pre-/postemergence herbicide test; type: in vivo, Xanthium strumarium; details: for Plant response rating, Cocklebur: preemergence; for Cocklebur plant response rating: postemergence, visual rating, scale 0 (no effect) to 100 (complete control)
# How it was run: (§4)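 Evaluation is visual, comparing treated with control plants on a scale where 0 means no effect and 100 means full control. Treatments were preemergence, or postemergence on seedlings 2–18 cm tall, and held 13–15 days in the greenhouse.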
# velvetleaf [6] = experiment: Test B pre-/postemergence herbicide test; type: in vivo, Abutilon theophrasti; details: for Plant response rating, Velvetleaf: preemergence; for Velvetleaf plant response rating: postemergence, visual rating, scale 0 (no effect) to 100 (complete control)
# How it was run: as §2
# rice [7] = experiment: Test B flooded paddy test; type: in vivo, Oryza sativa; details: 1000 g ai/ha, visual rating, scale 0 to 100 (0 no effect, 100 complete control), 13 to 15 days
# How it was run: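 Postemergence plants were sprayed with formulated test chemicals at 2 to 18 cm height (1- to 4-leaf stage); paddy species were grown to the 2-leaf stage. After 13 to 15 days in a greenhouse, injury was rated visually against untreated controls on a 0–100 scale (0 = no effect, 100 = complete control).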
# morningglory [8] = experiment: Test A pre-/postemergence herbicide test; type: in vivo, Ipomoea spp.
# How it was run: as §3
# wild oat = experiment: Test B postemergence herbicide test; type: in vivo, Avena fatua; details: postemergence, visual rating, scale 0 (no effect) to 100 (complete control)
# How it was run: (§5)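 Read-out: visual comparison with controls, scored 0 to 100, where 100 means complete control and 0 no effect. Formulated chemicals were applied postemergence to plants 2–18 cm tall (1- to 4-leaf), or to flooded-paddy plants at the 2-leaf stage, then held 13 to 15 days under glass.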
# morningglory [9] = experiment: Test B pre-/postemergence herbicide test; type: in vivo, Ipomoea coccinea; details: for Plant response rating, Morningglory: preemergence; for Morningglory plant response rating: postemergence, visual rating, scale 0 (no effect) to 100 (complete control)
# How it was run: as §4
# large crabgrass [10] = experiment: Test A pre-/postemergence herbicide test; type: in vivo, Digitaria sanguinalis
# How it was run: as §3
# Surinam grass = experiment: Test B pre-/postemergence herbicide test; type: in vivo, Urochloa decumbens; details: for Plant response rating, Surinam Grass: preemergence; for Surinam Grass plant response rating: postemergence, visual rating, scale 0 (no effect) to 100 (complete control)
# How it was run: as §2
# large crabgrass [11] = experiment: Test B pre-/postemergence herbicide test; type: in vivo, Digitaria sanguinalis; details: for Plant response rating, Crabgrass, Large: preemergence; for Crabgrass, Large plant response rating: postemergence, visual rating, scale 0 (no effect) to 100 (complete control)
# How it was run: as §2
# barnyardgrass [12] = experiment: Test B pre-/postemergence herbicide test; type: in vivo, Echinochloa crus-galli; details: for Plant response rating, Barnyardgrass: preemergence; for Barnyardgrass plant response rating: postemergence, visual rating, scale 0 (no effect) to 100 (complete control)
# How it was run: as §4
# barnyardgrass [13] = experiment: Test B flooded paddy test; type: in vivo, Echinochloa crus-galli; details: 1000 g ai/ha, visual rating, scale 0 to 100 (0 no effect, 100 complete control), 13 to 15 days
# How it was run: as §1
# wheat = experiment: Test B postemergence herbicide test; type: in vivo, Triticum aestivum; parameters: key to Wheat plant response rating: 0 = no effect, 100 = complete control; details: postemergence, 500 g ai/ha; visual rating, scale 0 (no effect) to 100 (complete control)
# How it was run: as §5
# giant foxtail [14] = experiment: Test A pre-/postemergence herbicide test; type: in vivo, Setaria faberi
# How it was run: as §3
# corn = experiment: Test B pre-/postemergence herbicide test; type: in vivo, Zea mays; details: for Plant response rating, Corn: preemergence; for Corn plant response rating: postemergence, visual rating, scale 0 (no effect) to 100 (complete control)
# How it was run: as §2
# lambsquarters = experiment: Test B pre-/postemergence herbicide test; type: in vivo, Chenopodium album; details: for Plant response rating, Lambsquarters: preemergence; for Lambsquarters plant response rating: postemergence, visual rating, scale 0 (no effect) to 100 (complete control)
# How it was run: as §2
# [15] = 500 g ai/ha, visual rating 0-100, 0 no effect, 100 complete control
# [16] = 125 g ai/ha, 0 to 100 scale, 0 is no effect, 100 is complete control
# [17] = Postemergence, 500 g ai/ha, 0 to 100 scale, 0 no effect, 100 complete control
# [18] = Postemergence, 2000 g ai/ha, 0 to 100 scale, 0 no effect, 100 complete control
# [19] = Preemergence, 2000 g ai/ha, visual rating, 0 to 100 scale (0 no effect, 100 complete control)
# [20] = preemergence, 500 g ai/ha, visual injury, 0 to 100 scale (0 no effect, 100 complete control)
# [21] = Preemergence, 500 g ai/ha, visual rating, 0 to 100 scale (0 no effect, 100 complete control)
smiles,measurement,setting,value
CCn1nc(C(C)(C)C)cc1C(=O)Nc1nccc(OC)n1 [Compound 165],Blackgrass plant response rating,blackgrass; 125 g ai/ha,0
same,Blackgrass plant response rating,blackgrass; 500 g ai/ha,0
same,"Sedge, Umbrella plant response rating",[1],0
same,"Plant response rating, Foxtail, Giant",giant foxtail [2]; [15],0
same,"Foxtail, Giant plant response rating",giant foxtail [2]; 125 g ai/ha,0
same,"Foxtail, Giant plant response rating",giant foxtail [2]; 500 g ai/ha,0
same,"Plant response rating, Foxtail, Giant",giant foxtail [2]; [16],0
same,Ducksalad plant response rating,ducksalad,0
same,Velvetleaf plant response rating,velvetleaf [3]; [17],10
same,"Plant response rating, Velvetleaf",velvetleaf [3]; [18],20
same,Velvetleaf plant response rating,velvetleaf [3]; [19],5
same,Velvetleaf plant response rating,velvetleaf [3]; [20],0
same,"Plant response rating, Pigweed",pigweed; [15],0
same,Pigweed plant response rating,pigweed; 125 g ai/ha,0
same,Pigweed plant response rating,pigweed; 500 g ai/ha,0
same,"Plant response rating, Pigweed",pigweed; [16],0
same,"Plant response rating, Rice",rice [4]; [15],0
same,"Plant response rating, Rice",rice [4]; [16],0
same,Barnyardgrass plant response rating,barnyardgrass [5]; [17],0
same,"Plant response rating, Barnyardgrass",barnyardgrass [5]; [18],0
same,Barnyardgrass plant response rating,barnyardgrass [5]; [21],0
same,Barnyardgrass plant response rating,barnyardgrass [5]; [19],0
same,Pigweed plant response rating,redroot pigweed; [17],0
same,"Plant response rating, Pigweed",redroot pigweed; [18],5
same,Pigweed plant response rating,redroot pigweed; [19],20
same,Pigweed plant response rating,redroot pigweed; [20],0
same,"Plant response rating, Cocklebur",cocklebur; [15],0
same,Cocklebur plant response rating,cocklebur; 125 g ai/ha,0
same,Cocklebur plant response rating,cocklebur; 500 g ai/ha,0
same,"Plant response rating, Cocklebur",cocklebur; [16],0
same,"Plant response rating, Velvetleaf",velvetleaf [6]; [15],0
same,Velvetleaf plant response rating,velvetleaf [6]; 125 g ai/ha,0
same,Velvetleaf plant response rating,velvetleaf [6]; 500 g ai/ha,0
same,"Plant response rating, Velvetleaf",velvetleaf [6]; [16],0
same,Rice plant response rating,rice [7],0
same,Morningglory plant response rating,morningglory [8]; [17],5
same,"Plant response rating, Morningglory",morningglory [8]; [18],5
same,Morningglory plant response rating,morningglory [8]; [21],0
same,Morningglory plant response rating,morningglory [8]; [19],0
same,"Oat, Wild plant response rating",wild oat; 125 g ai/ha,0
same,"Oat, Wild plant response rating",wild oat; 500 g ai/ha,0
same,"Plant response rating, Morningglory",morningglory [9]; [15],0
same,Morningglory plant response rating,morningglory [9]; 125 g ai/ha,0
same,Morningglory plant response rating,morningglory [9]; 500 g ai/ha,0
same,"Plant response rating, Morningglory",morningglory [9]; [16],0
same,"Crabgrass, Large plant response rating",large crabgrass [10]; [17],0
same,"Plant response rating, Crabgrass, Large",large crabgrass [10]; [18],0
same,"Crabgrass, Large plant response rating",large crabgrass [10]; [21],0
same,"Crabgrass, Large plant response rating",large crabgrass [10]; [19],0
same,"Plant response rating, Surinam Grass",Surinam grass; [15],0
same,Surinam Grass plant response rating,Surinam grass; 125 g ai/ha,0
same,Surinam Grass plant response rating,Surinam grass; 500 g ai/ha,0
same,"Plant response rating, Surinam Grass",Surinam grass; [16],0
same,"Plant response rating, Crabgrass, Large",large crabgrass [11]; [15],0
same,"Crabgrass, Large plant response rating",large crabgrass [11]; 125 g ai/ha,0
same,"Crabgrass, Large plant response rating",large crabgrass [11]; 500 g ai/ha,0
same,"Plant response rating, Crabgrass, Large",large crabgrass [11]; [16],0
same,"Plant response rating, Barnyardgrass",barnyardgrass [12]; [15],0
same,Barnyardgrass plant response rating,barnyardgrass [12]; 125 g ai/ha,0
same,Barnyardgrass plant response rating,barnyardgrass [12]; 500 g ai/ha,0
same,"Plant response rating, Barnyardgrass",barnyardgrass [12]; [16],0
same,Barnyardgrass plant response rating,barnyardgrass [13],0
same,Wheat plant response rating,wheat,0
same,"Foxtail, Giant plant response rating",giant foxtail [14]; [17],0
same,"Plant response rating, Foxtail, Giant",giant foxtail [14]; [18],0
same,"Foxtail, Giant plant response rating",giant foxtail [14]; [21],0
same,"Foxtail, Giant plant response rating",giant foxtail [14]; [19],0
same,"Plant response rating, Corn",corn; [15],0
same,Corn plant response rating,corn; 125 g ai/ha,0
same,Corn plant response rating,corn; 500 g ai/ha,0
same,"Plant response rating, Corn",corn; [16],0
same,"Plant response rating, Lambsquarters",lambsquarters; [15],0
same,Lambsquarters plant response rating,lambsquarters; 125 g ai/ha,0
same,Lambsquarters plant response rating,lambsquarters; 500 g ai/ha,0
same,"Plant response rating, Lambsquarters",lambsquarters; [16],0
